Values quoted from earlier work as cited in patent publication US10202400B2, “Cortistatin analogues and syntheses thereof” (President and Fellows of Harvard College, priority 2008, dated 2019).
In brackets after ≈: the same amount, converted by molar mass.

Key:
[1] = tested on: human nasopharynx carcinoma (KB) cells
[2] = tested on: HUVEC
[3] = tested on: several human and murine cancer cell lines and one normal human dermal fibroblast cell line (KB3-1, Neuro2A, K562, NHDF)
[4] = tested on: HUVECs
[5] = tested on: human umbilical vein endothelial cells (HUVECs)

Structure (SMILES)	ED50 [1] [µg/mL]	HUVEC cellular migration [2]	GI50 [3] [µM]	tubular formation in HUVECs [4]	GI50 [5] [µM]
CN[C@@H](C)[C@H]1CC[C@H]2[C@@H]3CC[C@@H]4C(=CC3=CC[C@]12C)CC[C@H](NC)C4(C)C [buxenine G]	0.4 (≈ 1.08 µM)				
CN(C)[C@H]1C[C@@]23CC[C@@]4(O2)C(=CC[C@]2(C)[C@@H](c5ccc6ccncc6c5)CC[C@H]24)C=C3[C@@H](O)[C@@H]1O [Cortistatin A, cortistatin A]		inhibits HUVEC cellular migration	6 to 7	inhibits tubular formation	0.00018
